Test results from publication PMC5354670, “Blockade of the malignant phenotype by β-subunit selective noncovalent inhibition of immuno- and constitutive proteasomes” (Oncotarget, 2017).
Blank lines part the entries; values can stand above or below the molecule they belong to.

Tests used:
[1] = target: human constitutive 20S proteasome cCP, ChT-L activity (β5) (Homo sapiens, UniProt P28074); experiment: Inhibition of ChT-L activity of human cCP (substrate Suc-LLVY-AMC); details: for inhibition at 50 µM: pH 8, read-out: % inhibition at 50 μM ChT-L, cCP; for factor by which ChT-L activity of cCP is more efficiently inhibited than PA: PA vs ChT-L
Experimental: (§7) They were assayed for in vitro inhibition of purified human cCP and iCP by measuring the hydrolysis of the β5 (ChT-L) substrate Suc-LLVY-AMC, β1 (PA) substrate Z-LLE-βNA, and β2 (T-L) substrate Boc-LRR-AMC in the presence of various concentrations of the tested molecules.
(§8) The experimental data are adjusted to equation 1 (c) or equation 2 (a, a’, b, b’, c’).
(§9) Purified human constitutive 20S proteasome cCP and human 20S immunoproteasome iCP from erythrocyte were obtained from Boston Biochem (Cambridge, USA). All fluorogenic substrates (Suc-LLVY-AMC, Boc-LRR-AMC, and Z-LLE-βNA) were obtained from Bachem (Weil am Rhein, Germany). […] Fluorescence was measured using a BMG Fluostar microplate reader (black 96-well microplates).
(§10) Substrates and compounds were previously dissolved in DMSO. The buffers were (pH 8.0): 20 mM Tris, 10% (v/v) glycerol, 0.01% (w/v) SDS, and 2% (v/v) DMSO (ChT-L and PA activities); 20 mM Tris, 10% (v/v) glycerol, 0.01% (w/v). The final iPR and cPR concentrations were 0.3 nM using 20 μM Suc-LLVY-AMC (ChT-L), 50 μM Boc-LRR-AMC (T-L) and 100 μM Z-LLE-βNA (PA). […] The enzyme and the inhibitors were incubated for 15 min before the measurement of the enzyme activity. Initial rates determined in control experiments (V0) were considered to be 100 % of the peptidase activity; initial rates (Vi) that were above 100 % in the presence of a tested compound were considered to be activations (expressed as activation factor), while initial rates below 100 % were considered to be inhibitions. […] The values of IC50 were calculated by fitting the experimental data to the equation 1 or equation 2, where nH is the Hill number.

[2] = target: human constitutive 20S proteasome cCP, T-L activity (β2) (Homo sapiens, UniProt Q99436); experiment: Inhibition of T-L activity of human cCP (substrate Boc-LRR-AMC); details: for fold induction at 50 µM: pH 8, read-out: x (activation factor) at 50 μM T-L, cCP; for inhibition at 50 µM: pH 8, read-out: % inhibition at 50 μM T-L, cCP
Experimental: as §7, §8, §9, §10

[3] = target: human constitutive 20S proteasome cCP, PA activity (β1) (Homo sapiens, UniProt P28072); experiment: Inhibition of PA activity of human cCP (substrate Z-LLE-βNA); details: for inhibition at 50 µM: pH 8, read-out: % inhibition at 50 μM PA, cCP
Experimental: as §7, §8, §9, §10

[4] = target: human 20S immunoproteasome iCP, T-L activity (β2) (Homo sapiens, UniProt P40306); experiment: Inhibition of T-L activity of human iCP (substrate Boc-LRR-AMC); details: for fold induction at 50 µM: pH 8, read-out: x (activation factor) at 50 μM T-L, iCP
Experimental: We decided to explore further their properties by testing their potential to inhibit human iCP versus cCP. They were assayed for in vitro inhibition of purified human cCP and iCP by measuring the hydrolysis of the β5 (ChT-L) substrate Suc-LLVY-AMC, β1 (PA) substrate Z-LLE-βNA, and β2 (T-L) substrate Boc-LRR-AMC in the presence of various concentrations of the tested molecules.
as §8
Purified human constitutive 20S proteasome cCP and human 20S immunoproteasome iCP from erythrocyte were obtained from Boston Biochem (Cambridge, USA). All fluorogenic substrates (Suc-LLVY-AMC, Boc-LRR-AMC, and Z-LLE-βNA) were obtained from Bachem (Weil am Rhein, Germany). Other reagents and solvents were purchased from commercial sources. Fluorescence was measured using a BMG Fluostar microplate reader (black 96-well microplates).
as §10

[5] = target: human 20S immunoproteasome iCP, ChT-L activity (β5) (Homo sapiens, UniProt P28062); experiment: Inhibition of ChT-L activity of human iCP (substrate Suc-LLVY-AMC); details: for ratio cCP/iCP, ChT-L activity: IC50 cCP / IC50 iCP; for inhibition at 50 µM: pH 8, read-out: % inhibition at 50 μM ChT-L, iCP
Experimental: as §7, §8, §9, §10

[6] = target: human 20S immunoproteasome iCP, PA activity (β1) (Homo sapiens, UniProt P28065); experiment: Inhibition of PA activity of human iCP (substrate Z-LLE-βNA); details: for ratio cCP/iCP, PA activity: IC50 cCP / IC50 iCP; for inhibition at 50 µM: pH 8, read-out: % inhibition at 50 μM PA, iCP
Experimental: as §7, §8, §9, §10

[7] = test system: MDA-MB-231 cells (breast cancer); experiment: MTT cell viability assay, MDA-MB-231; assay type: cell-based; details: for cytotoxicity at higher doses: 48 h; for CC50: Homo sapiens, 48 h treatment, MTT, read-out: LC50 (the source's name)
Experimental: (§1) We first analyzed the cytotoxic effects of B1f and B3 treatment on colon (CT-26) and breast cancer cells (MDA-MB-231 cells) using the MTT cell viability assay. B1f and B3 inhibited the viability of these cells in a dose-dependent manner after 48 h treatment. Higher doses of B1f and B3 lead to 100% cytotoxicity (Figure 4A). […] We next assessed the effect of B1f and B3 on the proliferation of these cells during 24h. […] Similarly, to evaluate whether these inhibitors can affect their invasion, tumor cells were incubated for 24 h in a microchemotaxis chamber pre-coated with collagen IV (Figure 4C) in the presence of the compounds B1f or B3.
(§2) Figure 4 Effect of compounds B1f and B3 on tumor cell proliferation and invasion A. CT-26 and MDA-MB 231 cells were treated with various concentrations of indicated compounds for 48h and cells viability was measured by MTT assay. B. Tumor cells were serum deprived overnight and then treated for 24 h with control media (None) or media containing compound B3 or B1f. Cell proliferation was assessed using Cell Titer96 non-radioactive cell proliferation assay. Results are shown as means ± S.E. of three experiments performed in triplicate. *P < 0.05. **P < 0.001. *** P < 0.0001. C. Indicated tumor cells were incubated in a microchemotaxis chamber pre-coated with collagen IV for cell invasion assay as described in the Materials and Methods section. The results are represented as the percentage of invading cells. Data are representative of 3 experiments and shown as mean ± S.E. (n=3 per group). **P < 0.001. *** P < 0.0001.
(§3) For the viability assay, CT-26 (colon cancer) and MDA-MB231 (breast cancer) cells were plated in triplicate on 96 wells plate (5.10^3/well). After treatment with indicated drugs, cells were incubated for 48 hours at 37°C and incubated with solution of 5 mg/ml of 3-(4,5-dimethylthiazol-2-yl)-2,5-diphenyltetrazolium bromide (MTT) tetrazolium substrate (Sigma) for 30 minutes at 37°C prior analysis on a microplate reader at 570. The LC50 value was defined as the drug concentration causing 50% cell death (LD = lethal dose) compared to growth of the untreated control cells. For cell proliferation, cells were plated in triplicate on 96 wells plate (5.10^3/well) under serum free conditions for 24 h. The starved cells were then incubated for 24h with fresh media containing the two selected compounds B1f and B3 that inhibit both ChT-L and PA activities of iCP and cCP. […] Proliferation level in cells was evaluated, as reported previously using the Cell Titer96 non-radioactive cell proliferation assay kit (Promega) according to manufacturer’s protocol

[8] = test system: MDA-MB-231 cells (breast cancer); experiment: Cell Titer96 non-radioactive cell proliferation assay, MDA-MB-231; assay type: cell-based; details: 10 μM, 24 h, vs control cells
Experimental: as §1
(§4) Figure 4 Effect of compounds B1f and B3 on tumor cell proliferation and invasion A. CT-26 and MDA-MB 231 cells were treated with various concentrations of indicated compounds for 48h and cells viability was measured by MTT assay. […] Cell proliferation was assessed using Cell Titer96 non-radioactive cell proliferation assay. […]
(§5) For the viability assay, CT-26 (colon cancer) and MDA-MB231 (breast cancer) cells were plated in triplicate on 96 wells plate (5.10^3/well). After treatment with indicated drugs, cells were incubated for 48 hours at 37°C and incubated with solution of 5 mg/ml of 3-(4,5-dimethylthiazol-2-yl)-2,5-diphenyltetrazolium bromide (MTT) tetrazolium substrate (Sigma) for 30 minutes at 37°C prior analysis on a microplate reader at 570. […]

[9] = test system: CT-26 cells (colon cancer); experiment: Cell invasion assay, microchemotaxis chamber pre-coated with collagen IV, CT-26; assay type: cell-based; details: 10 μM, 24 h
Experimental: as §1, §4
(§6) Cell invasion were determined using 24-well microchemotaxis chambers precoated with 7.5 μg collagen type IV (Becton Dickinson Labware), as previously described. […] Cell invasion were quantified by determination of the number of cells that migrated directly through the membrane toward the medium containing 10% serum that was used as a chemoattractant. […]

[10] = test system: CT-26 cells (colon cancer); experiment: Cell Titer96 non-radioactive cell proliferation assay, CT-26; assay type: cell-based; details: 10 μM, 24 h, vs control cells
Experimental: as §1, §4, §5

[11] = test system: MDA-MB-231 cells (breast cancer); experiment: Cell invasion assay, microchemotaxis chamber pre-coated with collagen IV, MDA-MB-231; assay type: cell-based; details: 10 μM, 24 h
Experimental: as §1, §4, §6

[12] = test system: CT-26 cells (colon cancer); experiment: MTT cell viability assay, CT-26; assay type: cell-based; details: for cytotoxicity at higher doses: CT-26 cells, 48 h; for CC50: Mus musculus, CT26 cells, 48 h treatment, MTT, read-out: LC50 (the source's name)
Experimental: as §1, §2, §3

SMILES: O=[N+]([O-])c1ccc(N2CCN(S(=O)(=O)c3ccc4ccccc4c3)CC2)cc1 [Compound B2b]
- inhibition at 50 µM [1]: 58.9%
- fold induction at 50 µM [2]: 4.5
- inhibition at 50 µM [3]: 50%

SMILES: Cc1ccc(S(=O)(=O)N2CCN(c3ccc([N+](=O)[O-])c(SCc4ccco4)c3)CC2)cc1 [Compound B1e]
- IC50 [1]: 2.5 µM
- factor by which ChT-L activity of cCP is more efficiently inhibited than PA [1]: 1.7
- inhibition at 50 µM [2]: < 25%
- IC50 [3]: 4.2 µM
- fold induction at 50 µM [4]: 3
- IC50 [5]: 5.5 ± 0.3 µM
- ratio cCP/iCP, ChT-L activity [5]: 0.55
- IC50 [6]: 3.3 ± 0.3 µM
- ratio cCP/iCP, PA activity [6]: 1.3

SMILES: O=[N+]([O-])c1ccc(N2CCN(S(=O)(=O)Cc3ccccc3)CC2)cc1NCCN1CCOCC1 [Compound B4]
- inhibition at 50 µM [1]: < 25%
- inhibition at 50 µM [2]: < 25%
- inhibition at 50 µM [3]: < 25%

SMILES: O=[N+]([O-])c1ccc(N2CCN(S(=O)(=O)c3ccc(Cl)cc3)CC2)cc1Sc1ccccn1 [Compound B1d]
- inhibition at 50 µM [1]: < 25%
- fold induction at 50 µM [2]: 4.7
- inhibition at 50 µM [3]: 46%

SMILES: Cc1ccccc1N1CCN(S(=O)(=O)c2ccc(C(C)(C)C)cc2)CC1 [Compound B1b]
- inhibition at 50 µM [1]: < 25%
- IC50 [2]: 12 µM
- inhibition at 50 µM [3]: < 25%
- IC50 [4]: 2.6 ± 0.4 µM
- cCP/iCP ratio for the IC50 values, T-L activity [4]: 4.6
- inhibition at 50 µM [5]: < 25%
- inhibition at 50 µM [6]: < 25%

SMILES: O=[N+]([O-])c1ccc(N2CCN(S(=O)(=O)c3ccc(Cl)cc3)CC2)cc1SCc1ccco1 [Compound B1f]
- IC50 [1]: 3.2 µM
- factor by which ChT-L activity of cCP is more efficiently inhibited than PA [1]: 2.3
- cytotoxicity at higher doses [7]: 100%
- CC50 [7]: 45.8 ± 5.2 µM
- effect on proliferation [8]: significant reduction in their proliferation
- inhibition at 50 µM [2]: < 25%
- IC50 [3]: 7.4 µM
- effect on invasion [9]: clearly decreased their ability to invade
- effect on proliferation [10]: significant reduction in their proliferation
- fold induction at 50 µM [4]: 3
- IC50 [5]: 5.8 ± 0.2 µM
- ratio cCP/iCP, ChT-L activity [5]: 0.45
- IC50 [6]: 3.7 ± 0.2 µM
- ratio cCP/iCP, PA activity [6]: 2
- effect on invasion [11]: clearly decreased their ability to invade
- cytotoxicity at higher doses [12]: 100%
- CC50 [12]: 24.4 ± 8.6 µM

SMILES: O=C(COc1ccc2ccccc2c1)N1CCN(S(=O)(=O)c2ccc([N+](=O)[O-])cc2)CC1 [Compound B3]
- IC50 [1]: 6.5 µM
- cytotoxicity at higher doses [7]: 100%
- CC50 [7]: 15.4 ± 4.7 µM
- effect on proliferation [8]: significant reduction in their proliferation
- inhibition at 50 µM [2]: < 25%
- IC50 [3]: 8.1 µM
- effect on invasion [9]: clearly decreased their ability to invade
- effect on proliferation [10]: significant reduction in their proliferation
- inhibition at 50 µM ([4]; pH 8, read-out: % inhibition at 50 μM T-L, iCP): < 25%
- IC50 [5]: 6.7 ± 0.2 µM
- IC50 [6]: 7.1 ± 0.2 µM
- effect on invasion [11]: clearly decreased their ability to invade
- cytotoxicity at higher doses [12]: 100%
- CC50 [12]: 26.4 ± 1.7 µM

SMILES: O=[N+]([O-])c1ccc(N2CCN(S(=O)(=O)c3ccc4ccccc4c3)CC2)cc1SCCN1CCOCC1 [Compound B2a]
- inhibition at 50 µM [2]: < 25%
- IC50 [3]: 31.2 ± 1 µM

SMILES: CC(C)Cc1ccc(S(=O)(=O)N2CCN(c3ccc([N+](=O)[O-])cc3)CC2)cc1 [Compound B1a]
- inhibition at 50 µM [1]: < 25%
- IC50 [2]: 10.3 µM
- inhibition at 50 µM [3]: < 25%
- cCP/iCP ratio for the IC50 values, T-L activity [4]: 1.4
- inhibition at 50 µM [5]: < 25%
- inhibition at 50 µM [6]: 25%

More lines, now with the values ahead:

- IC50 [1]: 24.6 ± 3.5 µM
- inhibition at 50 µM [2]: < 25%
- IC50 [3]: 13.9 ± 1.4 µM
SMILES: CC(C)(C)c1ccc(S(=O)(=O)N2CCN(c3ccc([N+](=O)[O-])c(NCc4ccccn4)c3)CC2)cc1 [Compound B1g]

- inhibition at 50 µM [1]: < 25%
- inhibition at 50 µM [2]: < 25%
- inhibition at 50 µM [3]: < 25%
SMILES: COc1ccc(S(=O)(=O)N2CCN(c3ccc([N+](=O)[O-])c(NCC(C)(C)C)c3)CC2)cc1OC [Compound B1i]

- inhibition at 50 µM [2]: < 25%
- inhibition at 50 µM [3]: 45%
SMILES: CC(=O)Nc1ccc(S(=O)(=O)N2CCN(c3ccc([N+](=O)[O-])c(NCCN4CCOCC4)c3)CC2)cc1 [Compound B1h]

- inhibition at 50 µM [1]: < 25%
- IC50 [2]: 8.1 µM
- inhibition at 50 µM [3]: < 25%
- IC50 [4]: 3.3 ± 0.4 µM
- cCP/iCP ratio for the IC50 values, T-L activity [4]: 2.4
- inhibition at 50 µM [5]: < 25%
- inhibition at 50 µM [6]: < 25%
SMILES: CC(C)(C)c1ccc(S(=O)(=O)N2CCN(c3ccc(Cl)cc3[N+](=O)[O-])CC2)cc1 [Compound B1c]
